These results are taken from US20070078123A1, “1-Thia-3-aza-dibenzo[e,h]azulenes for the treatment of central nervous system diseases and disorders” (PILVA-ISTRAZIVACKI INSTITUT D.O.O., priority 2003, published 2007).

Test [1] has as its target T1, 5-HT2C receptor (Homo sapiens, UniProt P28335).
T1 construct: expressed in transfected cells; host or cells: CHO-K1 (or COS-7) cells; alternatively choroid plexus tissue
T1 sequence (P28335 33-458): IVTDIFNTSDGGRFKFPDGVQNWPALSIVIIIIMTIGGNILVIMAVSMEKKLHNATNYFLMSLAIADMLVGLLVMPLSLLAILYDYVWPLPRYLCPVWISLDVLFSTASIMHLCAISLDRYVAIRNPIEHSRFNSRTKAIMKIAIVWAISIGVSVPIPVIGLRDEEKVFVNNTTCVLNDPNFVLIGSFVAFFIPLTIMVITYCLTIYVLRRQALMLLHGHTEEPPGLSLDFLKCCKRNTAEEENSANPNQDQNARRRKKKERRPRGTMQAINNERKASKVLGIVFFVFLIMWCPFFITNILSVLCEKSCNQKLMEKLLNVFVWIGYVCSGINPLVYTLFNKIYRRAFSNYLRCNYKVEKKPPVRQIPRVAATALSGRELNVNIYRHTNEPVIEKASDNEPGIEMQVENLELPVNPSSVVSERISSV
Kind of test: Radioligand binding assay for 5-HT2C receptor ([3H]-mesulergine competitive binding). As to conditions: choroid plexus or recombinant 5-HT2C receptor expressed in CHO-K1 cells, read-out: binding affinity to 5-HT2C serotonin receptor expressed as IC50 value. As for the experimental part: (§1) The effect of the compounds of the present invention on the neurochemical steady state was determined by in vitro investigations such as a radionuclide-marked radioligand binding assay for 5-HT2A (Bonhaus D. W. Br. J. Pharmacol. 1995, 115:622; Saucier C. J. Neurochem. 1997, 68:1998) and 5-HT2C receptors (Wolf W. A. J. Neurochem. 1997, 69:1449), in vitro binding assay for σ1 receptor (Thomson W. and Donn R. Arthritis Res. 2002, 4: 302-306) and by in vivo investigations in a tail suspension test (Vogel H. G. and Vogel W. H. Drug Discovery and Evaluation Pharmacological Assays, Springer 1997, 304), in amphethamine-induced hyperlocomotion in mice (Millan M. J. et al, 1998 J Pharmacol. Exp. 7her. 287: 167-186), in a forced swim test in mice (Porsolt R. D. et al. Arch. Int. Pharmacodyn. 1977, 229:327-336), in meta-chlorophenyl piperazine (m-CPP) test on rats (Drug Dev. Res. 1989, 18:119-144), and in apomorphine, tryptamine and norepinephrine (ATN) test in rats (Arch. Int. Pharmacodyn. 1977, 227:238-253). […]
(§2) During incubation the radioligand bound to the receptor. When a binding balance was achieved, the receptors to which the radioligand was bound were separated from those to which said ligand was not bound, and the radioactivity of the receptor/radioligand complex was measured. […]

Test [2] concerns the target T2, 5-HT2A receptor (Homo sapiens, UniProt P28223).
T2 construct: expressed in transfected cells; host or cells: CHO-K1 (or COS-7) cells; alternatively human cortex tissue
Kind of test: Radioligand binding assay for 5-HT2A receptor ([3H]-ketanserin competitive binding). The following applies: human cortex or recombinant 5-HT2A receptor expressed in CHO-K1 cells, read-out: binding affinity to 5-HT2A serotonin receptor expressed as IC50 value. Here is the method:
as §1, §2

T2 sequence (P28223 whole entry): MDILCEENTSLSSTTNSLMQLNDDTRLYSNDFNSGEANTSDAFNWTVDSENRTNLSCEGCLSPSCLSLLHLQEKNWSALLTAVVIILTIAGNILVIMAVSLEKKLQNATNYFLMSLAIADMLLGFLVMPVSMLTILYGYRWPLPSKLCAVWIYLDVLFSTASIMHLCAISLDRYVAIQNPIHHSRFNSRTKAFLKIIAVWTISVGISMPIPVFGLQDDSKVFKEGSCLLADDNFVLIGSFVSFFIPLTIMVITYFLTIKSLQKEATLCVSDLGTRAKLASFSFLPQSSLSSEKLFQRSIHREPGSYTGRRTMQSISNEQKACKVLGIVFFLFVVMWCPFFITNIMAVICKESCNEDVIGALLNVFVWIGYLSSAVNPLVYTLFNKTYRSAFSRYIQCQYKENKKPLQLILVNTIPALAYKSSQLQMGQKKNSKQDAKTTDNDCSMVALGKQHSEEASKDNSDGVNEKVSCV

By IC50 is commonly meant the concentration that inhibits the measured activity by half. For `CN(C)CCCOCc1nc2c(s1)-c1ccccc1Oc1ccc(Cl)cc1-2` [[3-(5-chloro-8-oxa-1-thia-3-aza-dibenzo[e,h]azulen-2-ylmethoxy)-propyl]-dimethyl-amine], the IC50 in test [1] and in test [2] was under 200 nM in each case.
